Source: PMC11188089, “Structural basis for antibiotic transport and inhibition in PepT2, the mammalian proton-coupled peptide transporter” (Research Square, 2024)
Where two headings read alike, the source gives them in different places. Blank lines part the entries; values can stand above or below the molecule they belong to. Where a SMILES comes first, the peptide text is derived from it.

Legend:
PepT2 [1] = molecular target: T1, PepT2 (Rattus norvegicus, UniProt Q63424); set-up: gene Slc15a2
T1 sequence (Q63424 1-729): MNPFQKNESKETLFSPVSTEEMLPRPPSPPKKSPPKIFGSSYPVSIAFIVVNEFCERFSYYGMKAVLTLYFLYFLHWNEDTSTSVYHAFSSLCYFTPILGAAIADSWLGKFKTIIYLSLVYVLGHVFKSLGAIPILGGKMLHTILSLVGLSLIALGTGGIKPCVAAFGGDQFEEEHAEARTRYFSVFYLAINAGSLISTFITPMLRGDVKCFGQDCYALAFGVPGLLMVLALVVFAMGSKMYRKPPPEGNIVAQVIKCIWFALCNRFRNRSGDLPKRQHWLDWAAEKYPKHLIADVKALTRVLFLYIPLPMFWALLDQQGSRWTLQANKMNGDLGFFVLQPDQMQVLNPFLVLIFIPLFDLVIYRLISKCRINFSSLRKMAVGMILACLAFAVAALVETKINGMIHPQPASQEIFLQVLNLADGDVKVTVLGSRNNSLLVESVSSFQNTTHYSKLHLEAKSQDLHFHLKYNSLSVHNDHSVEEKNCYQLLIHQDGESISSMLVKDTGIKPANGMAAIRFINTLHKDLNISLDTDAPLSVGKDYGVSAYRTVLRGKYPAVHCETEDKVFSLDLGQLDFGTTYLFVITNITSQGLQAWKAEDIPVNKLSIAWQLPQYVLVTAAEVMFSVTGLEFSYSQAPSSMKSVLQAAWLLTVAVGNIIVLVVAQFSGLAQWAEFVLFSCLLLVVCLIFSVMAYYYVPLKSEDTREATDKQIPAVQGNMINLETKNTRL

PepT2 [2] = molecular target: T1, PepT2; assay: inhibition of ^3H di-alanine uptake in PepT2 proteoliposomes; counterflow; SSM electrophysiology; type: biochemical; set-up: gene Slc15a2; purified rat PepT2 reconstituted into liposomes
[3] = molecular target: Rattus norvegicus PepT2 (SLC15A2), proton-coupled peptide transporter (Rattus norvegicus) (UniProt Q63424)
[4] = molecular target: T2, Rattus norvegicus PepT2 (SLC15A2), proton-coupled peptide transporter (Rattus norvegicus, UniProt Q63424); assay: cryo-EM structure; PepT2 after SEC (5-6 mg/ml, DDM:CHS) mixed with 1 mM antibiotic (cefadroxil, amoxicillin or cloxacillin) for one hour, then 1.2 molar excess of nanobody D8, on ice for at least 30 minutes; conditions: both partners purified
T2 construct: PepT2 (SLC15A2) from Rattus norvegicus; The extracellular domain (ECD) was in the protein but was not built in the deposited models; For the IC50 assay the same purified protein was reconstituted into POPE:POPG liposomes; The Addgene ids 167988 and 167989 are assigned to PepT2 and the nanobody by the order in the sentence; also called rat PepT2; RnPepT2; not shown: GFP, C-terminal, cleaved; His …

IC50 (PepT2 [1]): 1000 µM
Molecule: Nc1nc(/C(=C/CC(=O)O)C(=O)N[C@@H]2C(=O)N3C(C(=O)O)=CCS[C@H]23)cs1 [ceftibuten]

Molecule: C[C@H](N)C(=O)N[C@@H](C)C(=O)O [di-alanine] (H-Ala-Ala-OH)
IC50 (PepT2 [2]): 32 µM

IC50 for inhibition of the uptake of radioactive (3H) di-alanine into rat PepT2 proteoliposomes [3]: 32 µM
Molecule: di-alanine peptide

binding result [4]: binds
B1: nanobody D8 (inhibitory nanobody against rat PepT2) (VHH)
VHH: QVQLVESGGGLVQPGGSLRLLCVASGRPFNDYDMGWFRQAPGKEREFVASISWSGRVTDYSDSMKGRCTVSRDNAKGTMFLQMSNLVPRDTAVYYCAAARRRWTFKATNTEEFYETWGQGTQVTVSS
notes: the nanobody was resolved in the structures solved here (PDB 9BIR, 9BIS, 9BIT, 9BIU); expression plasmid in Addgene; also called the nanobody
